These results are taken from patent US10457637B2, “Benzenesulfonamide derivatives as inverse agonists of retinoid-related orphan receptor gamma (RORγ(T))” (GALDERMA RESEARCH & DEVELOPMENT, priority 2014, dated 2019).

What all share (format): cell-based
For data set [1], the system named is IL-17A secretion by CD4+ cells. The experiment in a line: IL-17A secretion by CD4+ cells (HTRF). To be noted: 96 h; human CD4+ cells activated with anti-CD3 and anti-CD28, 4 days of incubation; read-out: IC50 hCD4/IL17. On the procedure: This model allows measurement of the effect of inhibitors on IL-17A secretion by CD4+ cells. […] The amount of IL-17a secreted is measured by the TR-FRET (kit HTRF® Human Interleukin 17A (Cisbio, #64H17PEC)) technology.
The cells are rapidly thawed, resuspended in their culture medium (RPMI inactivated 10% FCS) supplemented with soluble anti-CD28 antibodies and seeded (100 000 cells/well) in 96-well plates precoated with anti-CD3 antibodies. The cells are then treated with the ranges of inhibitors to be tested (from 1000 nM to 0.05 nM, 0.1% DMSO). […] The IC50 values are calculated from a 4-parameter logistic model using the XLFit software (IDBS).
A general note: Time-resolved FRET reads energy transfer from a long-lived donor to a nearby acceptor.

For the next data set, the target named is hERG (Homo sapiens (Human), UniProt Q12809). The experiment in a line: hERG test, patch clamp on CHO-K1 cells. To be noted: CHO-K1 cells transfected with the hERG gene. The source says:
In the table below, the median inhibitory concentrations IC50 for the compounds belonging to formula (I) according to the invention have been given in accordance with the hERG test.
The hERG test makes it possible to study a gene which codes for a protein required for the functioning of heart tissue potassium channels. The patch clamp method on CHO-K1 cells (cells transfected with the hERG gene which has K+ ion activity on the membranes) is used for in vitro prediction of the blocking of hERG (human Ether-a-go-go Related).
The extracellular solution (control) is applied first. The cells (Chinese hamster ovarian cells expressing the Human Ether-a-go-go Related Gene) are stabilized with the extracellular solution for 5 minutes. The cells are incubated for 5 minutes with the molecules from the weakest to the strongest concentration at 0.6% DMSO final.
The result is expressed in the form of an IC50 value in μM.
Background: Block of hERG is tested as a sign of cardiac risk.

The target in data set [2] is ROR gamma ligand-binding domain (hRORg) (Homo sapiens (Human), UniProt P51449). The data set can be described thus: GAL4-RORγ transactivation (luciferase reporter, HG5LN HeLa line). The note with it: 18 hours incubation. The essentials: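 HeLa-derived HG5LN cells stably expressing GAL4 DBD fused to human RORγ LBD with GAL4-driven luciferase reporter; inhibition of constitutive activity lowers luminescence.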
Chain of ROR gamma ligand-binding domain (hRORg) (P51449 269-508): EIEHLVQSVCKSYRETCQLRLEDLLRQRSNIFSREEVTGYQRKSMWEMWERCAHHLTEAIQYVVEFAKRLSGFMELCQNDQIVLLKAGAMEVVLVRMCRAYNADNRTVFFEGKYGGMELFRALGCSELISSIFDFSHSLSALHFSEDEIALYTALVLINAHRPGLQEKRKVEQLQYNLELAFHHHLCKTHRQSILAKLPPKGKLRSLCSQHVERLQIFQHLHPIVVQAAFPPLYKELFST

Chain of hERG (Q12809 whole entry): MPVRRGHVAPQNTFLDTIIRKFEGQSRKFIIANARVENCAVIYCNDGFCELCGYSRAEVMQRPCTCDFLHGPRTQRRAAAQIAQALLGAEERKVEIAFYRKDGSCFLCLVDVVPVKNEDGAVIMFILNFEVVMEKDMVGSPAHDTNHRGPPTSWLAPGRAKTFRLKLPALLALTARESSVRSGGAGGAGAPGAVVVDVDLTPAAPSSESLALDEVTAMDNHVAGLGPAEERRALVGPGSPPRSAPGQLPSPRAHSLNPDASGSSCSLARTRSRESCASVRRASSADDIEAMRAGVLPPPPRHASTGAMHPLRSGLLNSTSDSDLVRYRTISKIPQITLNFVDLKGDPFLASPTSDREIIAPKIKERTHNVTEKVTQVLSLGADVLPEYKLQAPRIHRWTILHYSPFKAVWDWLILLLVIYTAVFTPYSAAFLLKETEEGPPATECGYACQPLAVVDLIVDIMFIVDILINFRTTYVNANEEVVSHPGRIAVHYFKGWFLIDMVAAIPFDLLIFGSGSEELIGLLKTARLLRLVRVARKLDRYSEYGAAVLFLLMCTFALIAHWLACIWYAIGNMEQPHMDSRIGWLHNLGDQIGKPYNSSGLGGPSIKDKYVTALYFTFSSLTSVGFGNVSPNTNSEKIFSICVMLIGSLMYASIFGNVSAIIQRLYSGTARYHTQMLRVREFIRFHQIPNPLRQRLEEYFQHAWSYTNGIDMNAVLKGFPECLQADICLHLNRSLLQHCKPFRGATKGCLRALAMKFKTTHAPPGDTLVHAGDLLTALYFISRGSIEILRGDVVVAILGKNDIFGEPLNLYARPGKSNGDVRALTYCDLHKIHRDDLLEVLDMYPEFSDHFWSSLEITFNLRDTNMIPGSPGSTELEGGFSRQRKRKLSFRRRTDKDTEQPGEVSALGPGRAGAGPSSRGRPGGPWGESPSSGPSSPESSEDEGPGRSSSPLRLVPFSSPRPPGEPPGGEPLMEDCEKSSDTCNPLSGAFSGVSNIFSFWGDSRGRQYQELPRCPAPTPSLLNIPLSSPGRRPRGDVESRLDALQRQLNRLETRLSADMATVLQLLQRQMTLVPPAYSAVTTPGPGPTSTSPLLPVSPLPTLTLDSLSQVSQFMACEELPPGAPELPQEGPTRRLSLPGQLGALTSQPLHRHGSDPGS

For the molecule `CCc1ccc(N(CC(C)C)S(=O)(=O)c2ccc(OCC3CCOCC3)c(S(C)(=N)=O)c2)cc1` (racemic) [compound 26, N-(4-ethylphenyl)-N-isobutyl-3-methanesulfonoximino-4-(tetrahydropyran-4-ylmethoxy)benzenesulfonamide], the figures for the IC50 (in data set [1]; against hERG) were under 100 nM and over 30000 nM, respectively.

In the case of `CCc1ccc(N(CC(C)C)S(=O)(=O)c2ccc(OCC3CCOCC3)c([S@@](C)(=N)=O)c2)cc1` (single isomer, unassigned) [compound 8, N-(4-ethylphenyl)-N-isobutyl-3-methanesulfoximino-4-(tetrahydropyran-4-ylmethoxy)benzenesulfonamide], the figures for the IC50 (in data set [1]; against hERG) were under 100 nM and over 30000 nM, respectively.

Regarding `CCc1ccc(N(CC(C)C)S(=O)(=O)c2ccc(OCC3CCOCC3)c([S@](C)(=N)=O)c2)cc1` [compound 7, N-(4-ethylphenyl)-N-isobutyl-3-methanesulfoximino-4-(tetrahydropyran-4-ylmethoxy)benzenesulfonamide], the IC50 in data set [1] is under 100 nM; at hERG, over 30000 nM.

`CCc1ccc(N(CC(C)C)S(=O)(=O)c2ccc(OC[C@H]3[C@@H]4COC[C@@H]43)c(S(C)(=N)=O)c2)cc1` (stereo partly drawn) [compound 35, 4-(((1R,5S,6R)-3-oxabicyclo[3.1.0]hexan-6-yl)methoxy)-N-(4-ethylphenyl)-N-isobutyl-3-(S-methylsulfonimidoyl)benzenesulfonamide]: the IC50 in data set [2] was under 100 nM; against hERG, over 30000 nM.

At hERG (human), `CCc1ccc(N(CC(C)C)S(=O)(=O)c2ccc(OCC3CCSCC3)c(S(C)(=N)=O)c2)cc1` (stereo not drawn) [compound 37] displayed an IC50 at 5 min of 11800 nM.

With `CCc1ccc(N(CC(C)C)S(=O)(=O)c2ccc(N3CCC(O)CC3)c(S(C)(=N)=O)c2)cc1` (stereo not drawn) [compound 128, N-(4-ethylphenyl)-4-(4-hydroxypiperidin-1-yl)-N-isobutyl-3-(S-methylsulfonimidoyl)benzenesulfonamide], the IC50 in data set [2] and in data set [1] was over 1000 nM in each case.

For `CCc1ccc(N(CC(C)C)S(=O)(=O)c2ccc(N3CC[C@H](O)C3)c(S(C)(=N)=O)c2)cc1` (stereo partly drawn) [compound 129, N-(4-ethylphenyl)-4-((S)-3-hydroxypyrrolidin-1-yl)-N-isobutyl-3-(S-methylsulfonimidoyl)benzenesulfonamide], the IC50 in data set [2] and in data set [1] was over 1000 nM in each case.

In the case of `CCc1ccc(N(CC(C)C)S(=O)(=O)c2ccc(N3CC[C@@H](O)C3)c(S(C)(=N)=O)c2)cc1` (stereo partly drawn) [compound 130, N-(4-ethylphenyl)-4-((R)-3-hydroxypyrrolidin-1-yl)-N-isobutyl-3-(S-methylsulfonimidoyl)benzenesulfonamide], the IC50 in data set [2] and in data set [1] was over 1000 nM each time.

Turning to `CCc1ccc(N(CC(C)C)S(=O)(=O)c2ccc(N3CC(O)C3)c(S(C)(=N)=O)c2)cc1` (stereo not drawn) [compound 131, N-(4-ethylphenyl)-4-(3-hydroxyazetidin-1-yl)-N-isobutyl-3-(S-methylsulfonimidoyl)benzenesulfonamide], the IC50 in data set [2] and in data set [1] was over 1000 nM each time.

As to `CCc1ccc(N(CC(C)C)S(=O)(=O)c2ccc(NCc3ccncn3)c(S(C)(=N)=O)c2)cc1` (stereo not drawn) [compound 133, N-(4-ethylphenyl)-N-isobutyl-3-(S-methylsulfonimidoyl)-4-((pyrimidin-4-ylmethyl)amino)benzenesulfonamide], the IC50 in data set [2] and in data set [1] was under 100 nM throughout.

On to `Cc1ccc(N(CC(C)C)S(=O)(=O)c2ccc(OCC3CCOCC3)c(S(C)(=N)=O)c2)c(C)c1` (stereo not drawn) [compound 142, N-(2,4-dimethylphenyl)-N-isobutyl-3-(S-methylsulfonimidoyl)-4-((tetrahydro-2H-pyran-4-yl)methoxy)benzenesulfonamide], for which the IC50 in data set [2] and in data set [1] was under 100 nM each time.
